The record followed here is patent US4225619A, “Substituted fluoracylresorcinols” (Boehringer Ingelheim GmBH, priority 1976, dated 1980).

Converted amounts (≈) assume the structure as drawn.

Assay [1] relates to Aspergillus niger. Briefly: Agar diffusion test (hole-test). Type of assay: cell-based. Conditions: 168 h, 27° C. for 7 days, read-out: MIC, A.D.T., Aspergillus niger. On the procedure: (§1) The inhibitory effect on bacteria and fungi was examined by the serial dilution test and the agar diffusion test (hole-test). As bacteria were used: Staphylococcus aureus SG 511, Streptococcus Aronson, Streptococcus pyogenes At CC 86 68; as fungi: Candida albicans AT CC 10231, Trichophyton mentagrophytes AT CC 9129 and Aspergillus niger.
(§2) 3. Sabouraud agar: for C. alb., Trich. ment., A. niger
(§3) The age of the primary cultures is 24 hours for bacteria and 14 days for fungi. The standardization of the suspension of microorganisms is effected using a photometer according to Eppendorf (test tube .phi.14 mm, filter 546 nm) and a suspension for comparison consisting of barium sulfate, this suspension being created by addition of 3.0 ml of 1% barium chloride solution to 97 ml of 1% sulfuric acid. After the standardization St. aureus SG 511 was diluted 1:1000 and Sc. pyogenes and Aronson 1:100 by means of sodium chloride solution. The fungi were used in an undiluted state.
(§4) 40 mgm of the substance were put into a 10 ml measuring flask and filled up to the mark with the solvent (corresponds to a dilution of 1:250=4000 μg/ml).
(§5) The dilutions to the concentrations under test were effected with distilled water or the respective solvent.
(§6) 19 ml of the nutrient medium were filled into sterile Petri dishes of a diameter of 8 cm and dried. Subsequently the agar plates were charged with 4 ml of seed agar. 100 ml of seed agar contain 1.25 ml of the suspension of microorganisms, an agar plate thus containing 0.05 ml of the suspension of microorganisms. After solidification of the agar, 5 holes of a diameter of 5 mm were punched into the plates and filled with 0.05 ml of the correspondingly concentrated substance solution.
(§7) Control tests merely using the solvent are to be carried out simultaneously.
(§8) Bacteria were incubated at 37° C. for 18-20 hours and fungi at 27° C. for 7 days.
(§9) The diameter of the area of inhibition in mm was measured after having deducted the diameter of the hole.
For orientation: In agar diffusion tests the substance spreads into inoculated agar from a disc or well.

The test system of assay [2] is Candida albicans AT CC 10231. In words: Agar diffusion test (hole-test). It counts as cell-based. To be noted: ATCC10231, 168 h, 27° C. for 7 days, read-out: MIC, A.D.T., Candida albicans. On the procedure:
as §1, §2, §3, §4, §5, §6, §7, §8, §9

For assay [3], the system named is Trichophyton mentagrophytes AT CC 9129. In words: Agar diffusion test (hole-test). It counts as cell-based. To be noted: ATCC9129, 168 h, 27° C. for 7 days, read-out: MIC, A.D.T., Trichophyton mentagrophytes. On the procedure: as §1, §2, §3, §4, §5, §6, §7, §8, §9
In assay [4] the test system is Aspergillus niger. Briefly: Serial dilution test. Type of assay: cell-based. To be noted: Aspergillus niger, 168 h, 27° C. for 7 days, read-out: MIC, S.D.T., Aspergillus niger. On the procedure:
as §1
(§10) 3. Sabouraud broth: for C. alb., Trich. mnt., A. niger
(§11) The age of the primary cultures is 24 hours for bacteria and 14 days for fungi. The standardization of the suspension of microorganisms is effected using a photometer according to Eppendorf (test tube .phi.14 mm, filter 546 nm) and a suspension for comparison consisting of barium sulfate, this suspension being created by adition of 3.0 ml of 1% barium chloride solution to 97 ml of 1% sulfuric acid. After the standardization the bacteria were further diluted to a concentration of 1:1000 by means of sodium chloride solution, the fungi were used in an undiluted state.
(§12) 40 mgm of the substance were put into a 10 ml measuring flask and filled up to the mark with the solvent (corresponds to a dilution of 1:250=4000 μg/ml). The further dilution series was standardized with distilled water or the respective solvent and the following substance concentrations were prepared: 1000; 250; 62.5 μg/ml.
(§13) The tubes were filled with 4.9 ml of the corresponding liquid nutrient medium. Then 0.1 ml of the substance dilution prepared above was added to each tube, so that the mentioned final concentrations were present. Finally each tube was inoculated with 0.1 ml of the standardized suspension of microorganisms. Control tests merely using the solvent are to be carried out simultaneously.
as §8
(§14) The measurement is carried out macroscopically defining the minimal inhibitory concentration (the lowest still microbiostatically effective concentration).

Assay [5] relates to Candida albicans AT CC 10231. In words: Serial dilution test. It counts as cell-based. To be noted: for MIC: Candida albicans, ATCC10231, 168 h, 27° C. for 7 days, read-out: MIC, S.D.T., Candida albicans. On the procedure: as §1, §10, §11, §12, §13, §8, §14
Assay [6] relates to Trichophyton mentagrophytes AT CC 9129. Briefly: Serial dilution test. It counts as cell-based. To be noted: ATCC9129, 168 h, 27° C. for 7 days, read-out: MIC, S.D.T., Trichophyton mentagrophytes. On the procedure:
as §1, §10, §11, §12, §13, §8, §14

Assay [7] deals with Pityrosporum ovale CBS 1878. In words: Agar diffusion test for Pityrosporum ovale CBS 1878. It counts as cell-based. Conditions: Malassezia furfur, CBS1878, 168 h, 7 days at 27° C., read-out: MIC, A.D.T., Pityrosporum ovale. On the procedure:
Agar diffusion test for Pityrosporum ovale CBS 1878 Nutrient medium
Littmann's agar, 23 ml per Petri dish, diameter of dish 100 mm.
Suspension of microorganisms in 0.9% sodium chloride solution, standardized using a photometer according to Eppendorf by means of a suspension for comparison consisting of barium sulfate. 0.05 ml per plate were used. The test substances were dissolved in dimethyl sulfoxide. The incubation time was 7 days at 27° C.; the area of inhibition in mm was measured, 0.05 ml of the solution of the substance were used for each punch-hole of a diameter of 6 mm. The results of these tests are recorded in the following tables 1 and 2: […]

Assay [8] concerns Pityrosporum ovale. In words: Serial dilution test for Pityrosporum ovale. Type of assay: cell-based. To be noted: Malassezia furfur, 168 h, 27° C. for 7 days, read-out: MIC, S.D.T., Pityrosporum ovale. On the procedure:
Serial dilution test for Corynebacterium acnes and Pityrosporum ovale Nutrient medium
For Corynebacterium acnes: thioglycolate-broth for Pityrosporum ovale: Littmann's broth, 5 ml per tube.
Suspension of microorganisms in 0.9% sodium chloride solution, standardized using a photometer according to Eppendorf by means of a suspension for comparison consisting of barium sulfate, for Corynebacterium acnes in a dilution of 1:100, for Pityrosporum ovale in an undiluted state. 0.1 ml of the suspensions was used per test tube. Dimethyl sulfoxide served as a solvent for the substances.
The suspension with Corynebacteria acnes was incubated at 37° C. for 48 hours, the suspension of Pityrosporum ovale at 27° C. for 7 days. The reading was effected by macroscopic evaluation of the growth of microorganisms and registration of the minimal inhibitory concentration.

Assay [9] concerns HeLa-cell culture. Briefly: Inhibition of HeLa cell cultures. Type of assay: cell-based. To be noted: Homo sapiens, 72 h, 37° C. for 3 days, 5% carbon dioxide. On the procedure:
Measurement of the inhibition of cell cultures
HeLa-cell culture was treated with trypsin and adjusted to a cell number of 150,000 cells/ml of fresh medium. The substance was always dissolved in the same quantity of dimethyl sulfoxide and then further diluted with growth medium. 0.1 ml of the substance-dilutions were added to each well of microtiter plates and then 0.2 ml of cell suspension were added (4 wells per dilution). Several growth controls containing 0.1 ml of growth medium instead of 0.1 ml of substance dilution were put up. After careful mixing, the cultures were incubated at 37° C. for 3 days in a 5% carbon dioxide atmosphere. The reading was effected in comparison with these controls. The results were given as the percentage of the deficiency and degeneration compared to the growth control. […] The statements are referred to μg of substance per ml of total medium.

The target of assay [10] is glucose-6-phosphate-dehydrogenase. Briefly: Inhibition of glucose-6-phosphate-dehydrogenase (G6PDH). Type of assay: biochemical. On the procedure:
Measurement of the inhibition of the glucose-6-phosphatedehydrogenase
The equilibrium was observed:
Glucose-6-phosphate+NADP^+ G6-DH gluconic
acid-6-phosphate+NADPH+H^+
(NADP=nicotinamide-adenine-dinycleotide-phosphate, G6P-DH=gluconic acid-6-phosphate-dehydrogenase)
The formation velocity of NADPH is a measure for the enzyme activity; it may be observed by means of the extinction increase at 340, 334 or 366 nm per unit of time.
0.025 ml of glucose-6-phosphate-dehydrogenase (Boehringer Mannheim) were filled up to 10 ml of distilled water (solution I). 100 mgm of nicotinamide-adenine-dinucleotide-phosphate were dissolved in 13 ml of distilled water (solution II). 47.2 mgm of glucose-6-phosphate were dissolved in further 10 ml of distilled water (solution 3). Simultaneously a buffer solution (solution IV) was prepared as follows: 0.28 gm of triethanolamine-hydrochloride and 1.461 gm of ethylene diaminotetraacetic acid-disodium salt were dissolved in 1 liter of distilled water and adjusted to a pH of 7.6 with sodium hydroxide solution. The substance under test was dissolved in dimethyl formamide or ethanol (solution V). Tested concentrations: 50; 25; 12.5; 6.25; 3.125; 1.56 and 0.78 μg/ml.
0.1 ml of solution I, 0.1 ml of solution II, 2.67 ml of solution IV and 0.03 ml of solution V were mixed and kept at 25° C. for 5 minutes. Then 0.1 ml of solution III was added, mixed and the alteration of extinction was determined spectrophotometrically at 366 nm for 3 minutes.
0.1 ml of solution I, 0.1 ml of solution II, 2.67 ml of solution IV and 0.03 ml of solution V were mixed and kept at 37° C. for 60 minutes. Then 0.1 ml of solution III was added, mixed and the alteration of extinction was measured spectrophotometrically at 366 nm for 3 minutes.
The inhibitory values were calculated from the average values of three measurements (alteration of extinction per minute) compared with controls, which received the pure solvent as the inhibitory solution. Then the ED50 was calculated according to Reed and Muench from the inhibitory values for the various concentrations.

As a reminder, the MIC is the lowest concentration found to suppress growth. As to `O=C(c1cc(Cl)c(O)cc1O)C(F)(F)F` [U, 2,4-Dihydroxy-5-chloro-trifluoroacetophenone], the MIC in assay [1] was determined as 250 µg/mL (≈ 1040 µM); in assay [2], 1000 µg/mL (≈ 4160 µM); in [3], 250 µg/mL (≈ 1040 µM); in assay [4] it was 20 µg/mL (≈ 83.1 µM); in assay [5], 20 µg/mL (≈ 83.1 µM); in assay [6] it was 5 µg/mL (≈ 20.8 µM). Moreover, the minimal inhibitory concentration (MIC) worked out at 1000 µg/mL (≈ 4160 µM) in [7] and 10 µg/mL (≈ 41.6 µM) in [8].
With `Cc1c(O)ccc(C(=O)C(F)(F)C(F)(F)F)c1O` [V, 2,4-Dihydroxy-3-methyl-pentafluoropropiophenone], the minimal inhibitory concentration (MIC) is > 4000 µg/mL in [1]; 4000 µg/mL (≈ 14800 µM) in assay [2]; 250 µg/mL (≈ 925 µM) in [3]; > 80 µg/mL in [4]; 80 µg/mL (≈ 296 µM) in assay [5]; 20 µg/mL (≈ 74 µM) in assay [6]. Moreover, the MIC in assay [7] is 4000 µg/mL (≈ 14800 µM); in assay [8], 20 µg/mL (≈ 74 µM). Moreover, the IC50 in assay [9] (read-out: ED50, HeLa cell culture) is 1.5 µg/mL (≈ 5.55 µM). For the same molecule, the minimal effective concentration in [9] (read-out: Minimal inhibitory concentration, HeLa cell culture) was ≤ 0.78 µg/mL.
Turning to `CCCCCCCCCCc1cc(C(=O)C(F)(F)F)c(O)cc1O` [W, 2,4-Dihydroxy-5-n-decyl-trifluoroacetophenone], the MIC is 250 µg/mL (≈ 722 µM) in [1]; 1000 µg/mL (≈ 2890 µM) in assay [2]; ≤ 15.6 µg/mL in [3]; 5 µg/mL (≈ 14.4 µM) in [4]; 1.25 µg/mL (≈ 3.61 µM) in assay [6]; 250 µg/mL (≈ 722 µM) in assay [7]. Moreover, the minimum inhibitory concentration (MIC) in [8] is 80 µg/mL (≈ 231 µM). Besides, the “Concentration with reduced growth (value in brackets), S.D.T., Candida albicans” value in assay [5] (reduced growth at this concentration) stood at 20 µg/mL.
For `CC(C)c1c(O)c(Cc2cc(C(=O)C(F)(F)F)c(O)c(C(C)C)c2O)cc(C(=O)C(F)(F)F)c1O` [Z, Methylene-bis-(2,4-dihydroxy-3-isopropyl-5-trifluoro-acetyl)-benzene], the “G6PDH-inhibition Ed50, Immediate Inhibition” value in assay [10] (25° C. for 5 minutes preincubation) turned out to be 0.58 µg/mL. For the same molecule, the “G6PDH-inhibition Ed50, Inhibition of Incubation” value in [10] (37° C. for 60 minutes preincubation) was determined as 0.13 µg/mL.
